Two compounds from US20250213701A1, “MEDICAMENT FOR TREATING HUMAN TUMOR BASED ON ERF3A-TARGETING PROTEOLYSIS MECHANISM” (SUZHOU DEGEN BIO-MEDICAL CO., LTD., priority 2022, published 2025) can be followed below.

Structures are written as SMILES.

What all share (assay type): cell-based
The target of experiment [1] is T1, GSPT1 (eRF3a) (Homo sapiens, UniProt P15170+Q96SW2).
T1 construct: The downregulation of SRD5A3 and GSPT1 (eRF3a) proteins in PC-3 and HepG2 cells by C59; endogenous in cells; host or cells: 22Rv1, PC-3, HepG2
T1 sequence (P15170 1-637 isoform P15170-3): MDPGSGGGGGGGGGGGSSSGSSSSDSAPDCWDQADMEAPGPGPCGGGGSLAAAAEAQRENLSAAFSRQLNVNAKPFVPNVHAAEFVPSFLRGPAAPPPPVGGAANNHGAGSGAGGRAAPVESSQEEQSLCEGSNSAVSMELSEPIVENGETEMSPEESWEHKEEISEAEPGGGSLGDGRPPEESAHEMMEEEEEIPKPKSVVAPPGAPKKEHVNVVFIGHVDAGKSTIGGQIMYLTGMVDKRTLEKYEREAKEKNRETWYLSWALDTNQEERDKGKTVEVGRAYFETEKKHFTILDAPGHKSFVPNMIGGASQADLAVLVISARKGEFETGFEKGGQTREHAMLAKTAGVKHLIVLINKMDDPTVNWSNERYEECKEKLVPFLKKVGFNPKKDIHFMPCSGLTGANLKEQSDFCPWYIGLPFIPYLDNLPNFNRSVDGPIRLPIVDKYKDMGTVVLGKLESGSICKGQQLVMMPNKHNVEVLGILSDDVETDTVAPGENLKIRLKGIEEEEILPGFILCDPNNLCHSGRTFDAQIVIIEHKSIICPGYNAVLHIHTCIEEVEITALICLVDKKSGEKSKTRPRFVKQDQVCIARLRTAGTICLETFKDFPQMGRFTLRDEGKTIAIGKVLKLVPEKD
T1 sequence (Q96SW2 whole entry): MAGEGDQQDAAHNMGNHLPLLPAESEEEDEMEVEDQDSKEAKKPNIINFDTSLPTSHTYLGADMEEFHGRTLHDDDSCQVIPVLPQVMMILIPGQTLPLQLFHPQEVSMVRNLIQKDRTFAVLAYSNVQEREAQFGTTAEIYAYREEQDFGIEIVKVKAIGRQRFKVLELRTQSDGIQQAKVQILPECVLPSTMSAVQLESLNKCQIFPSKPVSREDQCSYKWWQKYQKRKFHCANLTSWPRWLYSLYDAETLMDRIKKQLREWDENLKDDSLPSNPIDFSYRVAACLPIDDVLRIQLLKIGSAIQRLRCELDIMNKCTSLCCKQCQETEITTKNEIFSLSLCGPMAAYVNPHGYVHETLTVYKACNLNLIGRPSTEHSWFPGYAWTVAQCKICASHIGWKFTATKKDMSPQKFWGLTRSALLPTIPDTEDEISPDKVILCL
T1 sequence (Q16531 whole entry partner): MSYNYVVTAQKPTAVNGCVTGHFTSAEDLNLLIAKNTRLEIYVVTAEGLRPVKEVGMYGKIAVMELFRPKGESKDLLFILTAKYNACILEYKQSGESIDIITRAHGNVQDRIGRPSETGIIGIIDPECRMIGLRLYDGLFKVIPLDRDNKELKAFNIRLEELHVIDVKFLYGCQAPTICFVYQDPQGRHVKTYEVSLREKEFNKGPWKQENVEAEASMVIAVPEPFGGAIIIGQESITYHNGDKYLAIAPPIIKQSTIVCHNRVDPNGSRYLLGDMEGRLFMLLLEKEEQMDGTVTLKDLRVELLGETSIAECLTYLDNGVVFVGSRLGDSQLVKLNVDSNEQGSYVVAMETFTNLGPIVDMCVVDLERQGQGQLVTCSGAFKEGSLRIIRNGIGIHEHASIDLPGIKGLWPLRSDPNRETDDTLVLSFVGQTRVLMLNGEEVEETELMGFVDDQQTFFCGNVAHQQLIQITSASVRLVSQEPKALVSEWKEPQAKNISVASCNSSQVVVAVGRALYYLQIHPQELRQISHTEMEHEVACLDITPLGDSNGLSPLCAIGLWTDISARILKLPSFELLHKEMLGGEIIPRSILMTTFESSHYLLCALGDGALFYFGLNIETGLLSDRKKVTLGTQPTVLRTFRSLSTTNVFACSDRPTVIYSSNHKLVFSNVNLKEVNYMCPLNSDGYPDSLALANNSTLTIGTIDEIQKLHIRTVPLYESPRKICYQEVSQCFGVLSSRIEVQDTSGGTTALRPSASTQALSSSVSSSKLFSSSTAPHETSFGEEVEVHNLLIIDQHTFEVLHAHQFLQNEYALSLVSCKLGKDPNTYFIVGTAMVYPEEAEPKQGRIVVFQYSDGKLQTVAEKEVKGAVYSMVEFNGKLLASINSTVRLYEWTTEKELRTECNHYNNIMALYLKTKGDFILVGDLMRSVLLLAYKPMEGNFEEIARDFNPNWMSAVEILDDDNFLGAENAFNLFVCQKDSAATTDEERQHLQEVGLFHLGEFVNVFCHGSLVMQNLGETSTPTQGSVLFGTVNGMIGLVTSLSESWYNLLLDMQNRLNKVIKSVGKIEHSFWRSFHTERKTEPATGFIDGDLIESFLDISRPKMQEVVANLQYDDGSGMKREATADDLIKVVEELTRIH
Kind of experiment: Western blot assay in PC-3 cells: GSPT1 (eRF3a). The note with it: different concentrations at 24 h (FIG. 9). The text has this:
Example 84: Western Blot Assay of Compound C59 in 22Rv1, PC-3, and HepG2 Cells
(1) Materials: 22Rv1, PC-3, and HepG2 cell, anti-SRD5A1 antibody (ab167606), anti-SRD5A2 antibody (ab124877), anti-SRD5A3 antibody (PA5-107029), anti-androgen receptor (AR) antibody (CST, No. 5153), anti-GSPT1 antibody (Abcam, ab234433), anti-GADPH antibody (CST, No. 5174), anti-c-Myc antibody (CST, No. 8583), anti-α-tublin antibody (CST, No. 2125), anti-rabbit IgG, HRP-linked antibody (CST, No. 7074), electrophoresis device and membrane transfer device (LIUYI, BEIJING; DYCZ-24DN)
Cell seeding: 22Rv1 (Cell Bank of the Chinese Academy of Sciences, TCHu100), PC-3 (Cell Bank of the Chinese Academy of Sciences, SCSP-532) and HepG2 cells (Cell Bank of the Chinese Academy of Sciences, TCHu72) were subcultured and trypsinized to prepare 6×10^5 cells/mL suspensions, seeded on 6-well plates (3 mL/well), and cultured overnight in a cell incubator at 5% CO2 and 37° C. […]
Protein quantification: The protein was quantified using a BCA protein quantification kit. […]
Western immunoblot assay (or Western blot, WB): SDS-PAGE gel at a proper concentration was prepared according to the molecular weight of the target protein: for example, the concentration of the separation gel was 8% and the concentration of the stacking gel was 5%. The loading volume was adjusted according to the protein quantification results. […]
For orientation: A western blot detects proteins with antibodies after separation by electrophoresis.

The test system of experiment [2] is PC-3 cells. Kind of experiment: Anti-proliferative toxicity of C63 in tumor cell lines (CCK8): PC-3. The note with it: Homo sapiens, 72 h, 3 days, read-out: Inhibition rate. As to the method:
(§1) Example 83: Detection of Anti-Proliferative Toxicity of C63 in Some Tumor Cell Lines
PC-3 cells (purchased from the Cell Bank of the Chinese Academy of Sciences, Cat. No. SCSP-532) were subcultured in a culture medium (F12K medium+1% penicillin-streptomycin dual-antibiotic solution+10% fetal bovine serum) in an incubator at […] and 37° C.
PC-3 cells were seeded at 4000 cells/well (90 μL) on a 96-well plate and cultured for 24 h.
(§2) 10 mM compound stock solutions were prepared in DMSO.
(§3) The compound stock solution was diluted with DMSO to give DMSO solutions 1-9 at concentrations of 0 μM, 2500 μM, 500 μM, 100 μM, 20 μM, 4 μM, 0.8 μM, 0.16 μM, and 0.032 μM.
(§4) 2 μL of each of solutions 1-9 was added to 98 μL of the medium to give mixed solutions 11-19 of the compound and the medium.
(§5) 10 μL of each of solutions 11-19 was added to the above cell seed solution to give a total volume of 100 μL (90 μL+10 μL).
(§6) The concentrations of the compound in the wells were 0 μM, 5.0 μM, 1.0 μM, 0.2 μM, 0.04 μM, 0.008 μM, 0.0016 μM, 0.00032 μM, and 0.000064 μM. All concentrations were in triplicate.
(§7) After the above-treated cells were cultured for 3 days, 10 μL of the CCK8 solution (DOJINDO, Cat. No. PF725) was added to each well. The plate was incubated in an incubator at 37° C. for 1-4 h and then detected on a microplate reader for the reading at 450 nm.

Experiment [3] deals with HuH-7 cells. Kind of experiment: Anti-proliferative toxicity of C63 in tumor cell lines (CCK8): HuH-7. The note with it: Homo sapiens, 72 h, 3 days, read-out: Inhibition rate. As to the method: as §1
HuH-7 cells (purchased from the Cell Bank of the Chinese Academy of Sciences, Cat. No. SCSP-526) were subcultured in a culture medium (DMEM medium+[…] penicillin-streptomycin dual-antibiotic solution+10% fetal bovine serum) in an incubator at […] and 37° C.
HuH-7 cells were seeded at 5000 cells/well (90 μL) on a 96-well plate and cultured for 24 h.
as §2, §3, §4, §5, §6, §7

The subject of experiment [4] is BxPC-3 cells. Kind of experiment: Anti-proliferative toxicity of C63 in tumor cell lines (CCK8): BxPC-3. The note with it: Homo sapiens, 72 h, 3 days, read-out: Inhibition rate. As to the method: as §1
BxPC-3 cells (purchased from the Cell Bank of the Chinese Academy of Sciences, Cat. No. TCHu12) were subcultured in a culture medium (RPMI-1640 medium+1% penicillin-streptomycin dual-antibiotic solution+10% fetal bovine serum) in an incubator at 5% carbon dioxide and 37° C.
BxPC-3 cells were seeded at 3000 cells/well (90 μL) on a 96-well plate and cultured for 24 h.
as §2, §3, §4, §5, §6, §7

Consider `C[C@]12C=CC(=O)N[C@@H]1CC[C@@H]1[C@@H]2CC[C@]2(C)[C@@H](C(=O)Nc3cccc(N[C@@H]4CCC[C@@H](Nc5cccc6c5C(=O)N(C5CCC(=O)NC5=O)C6=O)C4)c3)CC[C@@H]12` (stereo partly drawn) [C59, N-(3-(N—(N-(4-(2-(3-(2,6-dioxopiperidine))-isoindole-1,3-dione))-1R,3R-cyclohexanediamine))phenyl)-3-oxo-4-aza-5α-androst-1-ene-17β-carboxamide], for which the “downregulation of GSPT1 (eRF3a) protein (Western blot)” value in experiment [1] is “downregulation”.

What is called inhibition is the relative decrease from the control value, in per cent. Regarding `C[C@]12C=CC(=O)N[C@@H]1CC[C@@H]1[C@@H]2CC[C@]2(C)[C@@H](C(=O)Nc3cccc(N[C@@H]4CCC[C@@H](Nc5cccc6c5C(=O)N([C@H]5CCC(=O)NC5=O)C6=O)C4)c3)CC[C@@H]12` [C63, N-(3-(N—(N-(4-(2-(3S-(2,6-dioxopiperidine))-isoindole-1,3-dione))-1R,3R-cyclohexanediamine))phenyl)-3-oxo-4-aza-5α-androst-1-ene-17β-carboxamide], the inhibition at 64 pM amounted to 45.1% in experiment [2] (0.000064 μM), 13.1% in experiment [3] (0.000064 μM) and 3.64% in experiment [4] (0.000064 μM). The figures for the inhibition at 0.00032 µM in experiment [2] (0.000320 μM), in experiment [3] (0.000320 μM) and in experiment [4] (0.000320 μM) were 65.1%, 59.9% and 22.6%, respectively. In addition, the figures for the inhibition at 0.0016 µM in experiment [2] (0.001600 μM), in experiment [3] (0.001600 μM) and in experiment [4] (0.001600 μM) were 78.8%, 77.1% and 56.5%, respectively. Further, the figures for the inhibition at 0.008 µM in experiment [2] (0.008000 μM), in experiment [3] (0.008000 μM) and in experiment [4] (0.008000 μM) were 82.8%, 79.3% and 68.2%, respectively. Moreover, the inhibition at 0.04 µM in experiment [2] (0.040000 μM) worked out at 80.2%; in experiment [3] (0.040000 μM), 78.3%; in experiment [4] (0.040000 μM), 71.6%. In addition, the inhibition at 0.2 µM amounted to 78.4% in experiment [2] (0.200000 μM), 78.3% in experiment [3] (0.200000 μM) and 72.9% in experiment [4] (0.200000 μM). Besides, the inhibition at 1 µM was 78.4% in experiment [2] (1.000000 μM), 75.1% in experiment [3] (1.000000 μM) and 76.5% in experiment [4] (1.000000 μM). Moreover, the figures for the inhibition at 5 µM in experiment [2] (5.000000 μM), in experiment [3] (5.000000 μM) and in experiment [4] (5.000000 μM) were 82.1%, 73.1% and 80.2%, respectively.
